Eight compounds from patent US8802858B2, “Furazanobenzimidazoles as prodrugs to treat neoplastic or autoimmune diseases” (Basilea Pharmaceutica AG, priority 2009, dated 2014) can be followed below.

Values after ≈ are worked out from the molar mass of the structure shown. Like-named read-outs stand apart in the source and are kept apart here.

The nature of data set [1]: Determination of kinetic solubility. The data set is classed as physicochemical. To be noted: aqueous buffer, kinetic from dmso stock, 2.5% DMSO, room temperature, read-out: C eff. The protocol:
Compounds, provided as 20 mM or 10 mM stock solutions in 100% DMSO, are diluted 1:40 in aqueous buffer to a concentration of 0.5 mM or 0.25 mM, respectively, with 2.5% residual DMSO. The pH 6.5 buffer consists of 0.05 M 3-(N-morpholino)-2-hydroxypropanesulfonic acid (MOPSO) adjusted to the target pH with NaOH. Buffers at pH 5 and pH 3 are prepared from commercially available concentrates (Titrisol®, Merck). The samples are then incubated at room temperature for 6 hours with gentle shaking followed by vacuum filtration through a MultiScreen DV plate (Durapore hydrophilic PVDF membrane, 0.65 μm pore size, Millipore). The filtrates are adjusted to 20% acetonitrile and analyzed by UV spectroscopy to obtain the absorption maximum and the corresponding wavelength. The concentration of compound in the filtrate is calculated based on the linear part of a standard curve constructed using 3 to 5 known concentrations of each sample in aqueous buffer supplemented with 20% acetonitrile.

Data set [2] is described as follows: Pharmacokinetic studies in xenografted mice (plasma and tumor). The data set is classed as in vivo, CD-1 Nu/Nu female mice. To be noted: female, CD-1 Nu/Nu, mouse, iv. The protocol: CD-1 Nu/Nu female mice implanted with the human colon carcinoma SW480 cell line are treated with either the “Parent Drug”, i.e. 3-(4-{1-[2-(4-amino-phenyl)-2-oxo-ethyl]-1H-benzoimidazol-2-yl}-furazan-3-ylamino)-propionitrile, or “Example 1” i.e. S-2,6-diamino-hexanoic acid [4-(2-{2-[4-(2-cyano-ethylamino)-furazan-3-yl]-benzoimidazol-1-yl}-acetyl)-phenyl]-amide hydrochloride salt, when the tumor size reached approximately 150 mm^3+/−10%. Mice (33 per compound) are treated i.v. […]
After the 4th application (4th week), three mice/sampling point from the “Parent Drug” and “Example 1” groups are culled before and 5 min, 15 min, 30 min, 45 min, 1 h, 1.5 h, 2 h, 4 h, 6 h and 24 h post-administration. Blood is collected by cardiac puncture into K3EDTA tubes kept on ice until centrifugation at 4° C. Plasma is stored at −20° C. At necropsy, tumors are removed and weighed. Tumors are stored at −20° C. Plasma and tumor samples are analyzed by LC-MS/MS. Pharmacokinetic parameters are calculated using WinNonLin 5.2. All results for “Example 1” represent the free base.

For data set [3], the system named is SW480 colorectal cancer xenografts. Nature of the data set: In vivo efficacy studies, SW480 xenografts. Further details: species or system athymic nude mice. The following applies: for final T/C (ratio of tumor volume in the treatment group vs. the control group) at day 24: once weekly i.v. for 24 days, prodrug 21 mg/kg, parent drug 8 mg/kg; for final T/C (day 24): three times per week (d1/4/7) i.v. for 24 days, prodrug 7.1 mg/kg. An excerpt: (§1) Mice bearing SW480 colorectal cancer xenografts are used to test and compare the anti-cancer efficacy and tolerability of intravenous (i.v.) application of the prodrug according to Example 1 (S-2,6-diamino-hexanoic acid [4-(2-{2-[4-(2-cyano-ethylamino)-furazan-3-yl]-benzoimidazol-1-yl}-acetyl)-phenyl]-amide hydrochloride salt) and the corresponding parent drug” (3-(4-{1-[2-(4-amino-phenyl)-2-oxo-ethyl]-1H-benzoimidazol-2-yl}-furazan-3-ylamino)-propionitrile) at the maximum tolerated dose level (MTD). Prior to the efficacy experiment, a determination of the MTD of each compound administered once weekly is performed in non-tumor-bearing nude mice of the same strain. Administration of 24.5 mg/kg prodrug and 10 mg/kg parent drug, given as an i.v. bolus once weekly, results in body weight losses >10% in a few animals in both groups. The MTDs in tumor-bearing mice are, therefore, determined to be 15-20% lower, resulting in doses of 21 mg/kg prodrug and 8 mg/kg parent drug. Human colorectal carcinoma cells (SW480) are injected subcutaneously (4×10^6 cells) into the back of 4-8-week old athymic nude mice. Tumor volumes are determined from calliper measurements of tumor length (L) and width (1) according to the formula (L×l^2)/2. Tumors are allowed to expand to a volume of 200 mm^3 (±10%) before treatment start. The prodrug and parent drug are administered i.v. for 24 days, either once per week at 21 mg/kg and 8 mg/kg, respectively, or three times a week (d1/4/7) at 7.1 mg/kg and 2.7 mg/kg, respectively (both schedules represent the same total weekly dose). Tumor volume and body weight are monitored daily.
FIG. 1 provides a graphical representation of the changes in mean tumor volume during the time of treatment when using the administration schedule, wherein prodrug and parent drug are given once weekly for 24 days at doses of 21 mg/kg and 8 mg/kg, respectively, with appropriate vehicle controls (5 ml/kg) administered with the same schedule. Data points represent mean values+/−SEM (n=7-8 animals, each animal was engrafted with one tumor).
FIG. 2 provides a graphical representation of the changes in mean tumor volume during the time of treatment when using the administration schedule, wherein prodrug and parent drug are given three times per week (d1/4/7) for 24 days at doses of 7.1 mg/kg and 2.7 mg/kg in 5 ml/kg, respectively, with appropriate vehicle controls (5 ml/kg) administered with the same schedule. Data points again represent mean values+/−SEM (n=7-8 animals, each animal was engrafted with one tumor).

A short description of data set [4]: Determination of the maximum tolerated dose (MTD), once weekly i.v. To be noted: athymic nude, mouse, in vivo, iv.
Description: as §1, with “The prodrug and parent drug are administered i.v. for 24 days, either once per week at 21 mg/kg and 8 mg/kg, respectively, or three times a week (d1/4/7) at 7.1 mg/kg and 2.7 mg/kg, respectively (both schedules represent the same total weekly dose).” left out

Data set [5] is described as follows: In vivo pharmacokinetic studies, intravenous administration, Vena saphena screening method. More on the design: species or system male NMRI mice. To be noted: mice, i.v. administration of the prodrug. How it is done:
The compounds are evaluated in vivo after intravenous administration to male NMRI mice using the Vena saphena screening method.
A dose of 1 mg/kg of the compound is administered i.v. as a bolus (5 mL/kg). Serial blood samples (40 μL) are drawn after puncture of the saphenous vein and collected in a sodium heparin coated capillary tube from two mice per time point at pre-dose, 5 min, 15 min, 30 min, 45 min, 1 h, 2 h, 4 h, 6 h, 8 h and 24 h after intravenous administration.
Blood samples are weighed and the blood quenched in 300 μl stop solution consisting of acetonitrile/water (80:20) and an internal standard.
Blood concentrations of the compound (prodrug) and its parent drug are determined using LC-MS/MS analysis with a limit of quantification of 4 to 40 ng/mL.
Mean arithmetic plasma/blood concentrations are calculated using BLQ (below limit of quantitation)−value of zero if necessary. • Mean AUCinfIV [ng*h/mL] The area under the blood concentration-time curve for a mean normalized (1 mg/kg) iv application from time zero to the last sampling time with a concentration above the limit of quantification. • Mean AUCinfIV is calculated according to the linear trapezoidal rule.
In a study mice are intravenously treated with prodrugs according to the invention, followed by determination of the blood concentration of the drug. […]

Data set [6] is described as follows: Prodrug-drug conversion in full blood. The data set is classed as in vitro ADME. To be noted: fresh heparinised rat blood, 37° C., after 120 min. How it is done: 495 μL fresh heparinised rat blood are spiked with 5 μL of a 1 mg/mL DMSO solution of the analyte (prodrug) at 37° C. After t=0, 5, 15, 30, 60 and 120 min, a blood sample is taken and precipitated. Therefore to 50 μL blood sample or spiked blood sample 150 μL acetonitrile containing an internal standard are added. Samples are centrifuged and 20 μl of the supernatant are injected into the HPLC system for determination of compound concentration (prodrug and parent drug) by LC-MS/MS analysis.
For calibration, a standard curve is prepared with a compound concentration range from 10 to 10000 ng/mL in fresh heparine rat blood. Therefore the blood is spiked (2 μL DMSO solution in 198 μL fresh rat blood) and precipitated like unknown samples.

Turning to `CC(C)C[C@H](N)C(=O)Nc1ccc(C(=O)Cn2c(-c3nonc3NCCC#N)nc3ccccc32)cc1` [Example 11], the solubility kinetic at 6 h came to 189 µM (≈ 94.6 µg/mL) in data set [1] (pH 3.0 buffer), 37 µM (≈ 18.5 µg/mL) in data set [1] (pH 5.0 buffer) and 20 µM (≈ 10 µg/mL) in data set [1] (pH 6.5 buffer).

Regarding `N#CCCNc1nonc1-c1nc2ccccc2n1CC(=O)c1ccc(NC(=O)[C@@H](N)CCCCN)cc1` [Example 1, S-2,6-diamino-hexanoic acid [4-(2-{2-[4-(2-cyano-ethylamino)-furazan-3-yl]-benzoimidazol-1-yl}-acetyl)-phenyl]-amide], the solubility kinetic at 6 h in data set [1] (pH 3.0 buffer) was over 200 µM; in data set [1] (pH 5.0 buffer), over 200 µM; in data set [1] (pH 6.5 buffer), 190 µM (≈ 98 µg/mL). The AUC(0-t) in data set [2] (plasma, analyte Example 1 (free base), after i.v. 19.6 mg Example 1, xenografted mice, read-out: AUClast of Example 1 in plasma) turned out to be 21100 ng·h/mL; in data set [2] (tumor, analyte Example 1 (free base), after i.v. 19.6 mg Example 1, xenografted mice, read-out: AUClast of Example 1 in tumors), 29300 ng·h/mL. In addition, the Cmax came out at 81900 ng/mL in data set [2] (plasma, analyte Example 1 (free base), after i.v. 19.6 mg Example 1, xenografted mice, read-out: Cmax of Example 1 in plasma) and 6010 ng/mL in data set [2] (tumor, analyte Example 1 (free base), after i.v. 19.6 mg Example 1, xenografted mice, read-out: Cmax of Example 1 in tumors). Moreover, the half-life in data set [2] (plasma, analyte Example 1 (free base), after i.v. 19.6 mg Example 1, xenografted mice, read-out: T1/2 of Example 1 in plasma (converted)) was 330 min; in data set [2] (tumor, analyte Example 1 (free base), after i.v. 19.6 mg Example 1, xenografted mice, read-out: T1/2 of Example 1 in tumors (converted)) it was 576 min. For the same compound, the “final T/C (ratio of tumor volume in the treatment group vs. the control group) at day 24” value in data set [3] is given as 34%. In addition, in data set [3] (parent drug 2.7 mg/kg), the “final T/C (day 24)” value is 26%. Moreover, the MTD in data set [4] stood at 21 mg/kg.

`N#CCCNc1nonc1-c1nc2ccccc2n1CC(=O)c1ccc(NC(=O)CN)cc1` [Example 3]: the solubility kinetic at 6 h in data set [1] (pH 3.0 buffer) was over 200 µM; in data set [1] (pH 5.0 buffer) it was 71 µM (≈ 31.6 µg/mL); in data set [1] (pH 6.5 buffer), 106 µM (≈ 47.1 µg/mL).

In the case of `N#CCCNc1nonc1-c1nc2ccccc2n1CC(=O)c1ccc(N)cc1` [Parent Drug, 3-(4-{1-[2-(4-Amino-phenyl)-2-oxo-ethyl]-1H-benzoimidazol-2-yl}-furazan-3-ylamino)-propionitrile, reference compound], the solubility kinetic at 6 h in data set [1] (pH 3.0 buffer), in data set [1] (pH 5.0 buffer) and in data set [1] (pH 6.5 buffer) was under 10 µM throughout. Further, the Cmax worked out at 11000 ng/mL in data set [2] (plasma, after i.v. 8 mg/kg Parent Drug, 4th application, xenografted mice, read-out: Cmax of Parent Drug in plasma) and 3210 ng/mL in data set [2] (tumor, after i.v. 8 mg/kg Parent Drug, 4th application, xenografted mice, read-out: Cmax of Parent Drug in tumors). The AUC(0-t) in data set [2] (plasma, after i.v. 8 mg/kg Parent Drug, xenografted mice, read-out: AUClast of Parent Drug in plasma) was 44800 ng·h/mL; in data set [2] (tumor, after i.v. 8 mg/kg Parent Drug, xenografted mice, read-out: AUClast of Parent Drug in tumors) it was 45500 ng·h/mL. Moreover, the half-life was 192 min in data set [2] (plasma, after i.v. 8 mg/kg Parent Drug, xenografted mice, read-out: T1/2 of Parent Drug in plasma (converted)) and 324 min in data set [2] (tumor, after i.v. 8 mg/kg Parent Drug, xenografted mice, read-out: T1/2 of Parent Drug in tumors (converted)). Also, the “final T/C (ratio of tumor volume in the treatment group vs. the control group) at day 24” value in data set [3] came out at 45%. The “final T/C (day 24)” value in data set [3] (parent drug 2.7 mg/kg) came out at 54%. Moreover, the “death of animals during treatment” value in data set [3] (three times per week i.v., parent drug 2.7 mg/kg) was “one animal in the parent drug-group (three times per week treatment) died at day 10”. For the same compound, in data set [4] (i.v. once weekly, set 15-20% lower than dose causing body weight loss, read-out: MTD in tumor-bearing mice), the MTD came out at 8 mg/kg.

Take `N#CCCNc1nonc1-c1nc2ccccc2n1CC(=O)c1ccc(NS(=O)(=O)O)cc1` [Example 15, [4-(2-{2-[4-(2-Cyano-ethylamino)-furazan-3-yl]-benzoimidazol-1-yl}-acetyl)-phenyl]-sulfamic acid]: the “levels of the parent drug after intravenous administration” value in data set [5] is “no significant levels”.

Regarding `CN(C)/C=N/c1ccc(C(=O)Cn2c(-c3nonc3NCCC#N)nc3ccccc32)cc1` [Example 14, N′-[4-(2-{2-[4-(2-Cyano-ethylamino)-furazan-3-yl]-benzoimidazol-1-yl}-acetyl)-phenyl]-N,N-dimethyl-formamidine], the “levels of the parent drug after intravenous administration” value in data set [5] is “no significant levels”.

Turning to `NCC(=O)Nc1nonc1-c1nc2ccccc2n1CC(=O)c1ccc(N)cc1` [Example 13, 2-Amino-N-(4-{1-[2-(4-amino-phenyl)-2-oxo-ethyl]-1H-benzoimidazol-2-yl}-furazan-3-yl)-acetamide], the “conversion of prodrug into its parent drug” value in data set [6] is listed as “approximately 74%”.

As to `C[C@H](N)C(=O)Nc1ccc(C(=O)Cn2c(-c3nonc3NCCC#N)nc3ccccc32)cc1` [Example 2], the solubility kinetic at 6 h in data set [1] (pH 3.0 buffer) is over 200 µM; in data set [1] (pH 5.0 buffer) it was 55 µM (≈ 25.2 µg/mL); in data set [1] (pH 6.5 buffer), 91 µM (≈ 41.7 µg/mL).

As a reminder, the Cmax is the maximum level reached in the sampled fluid or tissue. As usually defined, the MTD is the highest dose tested that stayed within the study's limit of toxicity.
